Test results reported in publication PMC6792352, “Limited Chemical Structural Diversity Found to Modulate Thyroid Hormone Receptor in the Tox21 Chemical Library” (Environmental Health Perspectives, 2019).
Counter-ions that a name gives are not always drawn.

test: in vitro; conditions: rat, gh3-tre-luc cells, AC50 (uM) modified / 1000

C[C@@]1(c2ccc(Oc3ccccc3)cc2)OC(=O)N(Nc2ccccc2)C1=O (racemic) [Famoxadone] and O=C1c2ccccc2C(=O)C1c1ccccc1 [Phenindione] cannot be ordered by CC50 at 24 h: 39 µM for the first, greater than 20 µM for the second.

CC(C)CC(O)Cc1ccccc1 (stereo not shown) [4-Methyl-1-phenyl-2-pentanol] and N#CCc1ccccc1 [Benzyl cyanide] cannot be ordered by CC50 at 24 h: greater than 90 µM for the first, greater than 90 µM for the second.

O=C(O)c1ccc(C(=O)O)cc1 [Terephthalic acid] and O=C(Cl)c1cccc(C(=O)Cl)c1 [1,3-Benzenedicarbonyl dichloride] cannot be ordered by CC50 at 24 h: greater than 90 µM for the first, greater than 90 µM for the second.

CC(C)c1ccc(O)c(C(C)C)c1 [2,4-Diisopropylphenol] and CCOc1ccc(NC(C)=O)cc1N [3-Amino-4-ethoxyacetanilide] cannot be ordered by CC50 at 24 h: greater than 90 µM for the first, greater than 90 µM for the second.

Oc1ccccc1 [Phenol] and CC(=O)c1ccccc1 [Acetophenone] cannot be ordered by CC50 at 24 h: greater than 50 µM for the first, greater than 90 µM for the second.

Nc1cc([N+](=O)[O-])ccc1C(=O)O [4-Nitroanthranilic acid] and Nc1ccc(Cl)c(Cl)c1 [3,4-Dichloroaniline] cannot be ordered by CC50 at 24 h: greater than 90 µM for the first, greater than 90 µM for the second.

COC(=O)CSc1cc(/N=c2\sc(=O)n3n2CCCC3)c(F)cc1Cl [Fluthiacet-methyl] and CCn1cc(C(=O)O)c(=O)c2cc(F)c(N3CCNC(C)C3)c(F)c21 (stereo not shown) [Lomefloxacin hydrochloride] cannot be ordered by CC50 at 24 h: greater than 90 µM for the first, greater than 50 µM for the second.

CC/C=C\CCOC(C)=O [(3Z)-3-Hexenyl acetate] and CC(C)=CCCC(C)CCO (stereo not shown) [Citronellol] cannot be ordered by CC50 at 24 h: greater than 90 µM for the first, greater than 100 µM for the second.

CC(=O)SCc1ccco1 [S-Furfuryl thioacetate] and CC(=O)c1ccccn1 [2-Acetylpyridine] cannot be ordered by CC50 at 24 h: greater than 90 µM for the first, greater than 90 µM for the second.

Clc1ccc(Nc2nnc(Cc3ccncc3)c3ccccc23)cc1 [Vatalanib] and Clc1ccccc1-c1nnc(-c2ccccc2Cl)nn1 [Clofentezine] cannot be ordered by CC50 at 24 h: greater than 50 µM for the first, greater than 90 µM for the second.

First: CN1Cc2c(N)cccc2C(c2ccccc2)C1 (stereo not shown) [Nomifensine]
Second: Nc1ccccc1-c1ccccc1 [2-Biphenylamine]
The CC50 at 24 h of the first is lower: 38.8 µM for the first, greater than 90 µM for the second.

CCCCCCCCCCCCCCCCCl [1-Chlorohexadecane] and CCCC[C@@H](CC)COC(=O)c1ccccc1C(=O)OC[C@@H](CC)CCCC [Di(2-ethylhexyl) phthalate] cannot be ordered by CC50 at 24 h: greater than 20 µM for the first, greater than 90 µM for the second.

Nc1nc(N)nc(-c2cc(Cl)ccc2Cl)n1 [Irsogladine maleate] and CCC(C)(C)C(=O)OC1=C(c2ccc(Cl)cc2Cl)C(=O)OC12CCCCC2 [Spirodiclofen] cannot be ordered by CC50 at 24 h: greater than 50 µM for the first, greater than 90 µM for the second.

O=C(Oc1ccccc1)c1ccc(O)cc1 [Phenylparaben] and Cc1ccc(S(=O)(=O)NC(=O)N[C@@H](C)Cc2ccccc2)cc1 [Tosifen] cannot be ordered by CC50 at 24 h: greater than 90 µM for the first, greater than 50 µM for the second.

Cc1cc(O)c(C(=O)N[C@@H](C(=O)N[C@@H]2C(=O)N3C(C(=O)O)=C(CSc4nnnn4C)CS[C@H]23)c2ccc(O)cc2)cn1 [Cefpiramide acid] and NC(=O)c1cc[n+](CC2=C(C(=O)O)N3C(=O)[C@@H](NC(=O)[C@@H](c4ccccc4)S(=O)(=O)[O-])[C@H]3SC2)cc1 [Cefsulodin sodium] cannot be ordered by CC50 at 24 h: greater than 50 µM for the first, greater than 20 µM for the second.

CN/C(=N\c1ccc(C2=NNC(=O)CC2C)cc1)NC#N (stereo not shown) [Siguazodan] and O=S(=O)(O)c1ccc2[nH]c(-c3ccccc3)nc2c1 [Ensulizole] cannot be ordered by CC50 at 24 h: greater than 50 µM for the first, greater than 90 µM for the second.

OCC1CO1 (stereo not shown) [Glycidol] and c1ccc(OCC2CO2)cc1 (stereo not shown) [Phenyl glycidyl ether] cannot be ordered by CC50 at 24 h: greater than 90 µM for the first, greater than 90 µM for the second.

Nc1cccc2c(N)cccc12 [1,5-Naphthalenediamine] and O=C1c2ccccc2-c2n[nH]c3cccc1c23 [SP600125] cannot be ordered by CC50 at 24 h: greater than 90 µM for the first, greater than 50 µM for the second.

First: Cc1cc(F)ccc1-c1cc(N2CC[C@@H](O)[C@H]2CO)ncc1N(C)C(=O)C(C)(C)c1cc(C(F)(F)F)cc(C(F)(F)F)c1 [PharmaGSID_48513]
Second: CCC(C)(C)c1cc(-n2nc3ccccc3n2)c(O)c(C(C)(C)CC)c1 [2-(2H-Benzotriazol-2-yl)-4,6-bis(1,1-dimethylpropyl)phenol]
The CC50 at 24 h of the first is lower: 12.5 µM for the first, greater than 90 µM for the second.

Cn1cc([S+](C)[O-])c(=O)c2ccc(F)cc21 (stereo not shown) [Flosequinan] and COc1c2occc2cc2ccc(=O)oc12 [8-Methoxypsoralen] cannot be ordered by CC50 at 24 h: greater than 50 µM for the first, greater than 50 µM for the second.

CC1=NN(c2cc(Cl)c(S(=O)(=O)O)cc2Cl)C(=O)C1N=Nc1ccc(S(=O)(=O)O)cc1 (stereo not shown) [C.I. Acid Yellow 17, disodium salt] and O=S(=O)(O)c1ccccc1 [Benzenesulfonic acid] cannot be ordered by CC50 at 24 h: 92.5 µM for the first, greater than 90 µM for the second.

Compared with NC(=O)COCCN1CCN(C(c2ccccc2)c2ccc(Cl)cc2)CC1 (stereo not shown) [Cetirizine amide dihydrochloride], COCCOc1cc2cc(C(=O)NC3CCN(C(C)C)CC3)n(CC(=O)Nc3ccc(Cl)cn3)c2cn1 [SAR377142] is 3.3-fold higher in CC50 at 24 h: 21.7 µM for the first, 71.7 µM for the second.

C/C=C/C=C/CO [(2E,4E)-Hexa-2,4-dien-1-ol] and CCC(Cl)[N+](=O)[O-] (stereo not shown) [1-Chloro-1-nitropropane] cannot be ordered by CC50 at 24 h: greater than 90 µM for the first, greater than 100 µM for the second.

Going from CC[C@]12CCCN3CCc4c(n(c5ccccc45)[C@@](O)(C(=O)OC)C1)[C@@H]32 [Vincamine] to COc1cc2nc(N3CCN(C(=O)C4COc5ccccc5O4)CC3)nc(N)c2cc1OC (stereo not shown) [Doxazosin mesylate], the CC50 at 24 h falls from 65.8 µM to 25.4 µM (2.6-fold).

Cc1ccc(C)c(OCCCC(C)(C)C(=O)O)c1 [Gemfibrozil] and Cc1ccccc1OCC(=O)O [(2-Methylphenoxy)acetic acid] cannot be ordered by CC50 at 24 h: greater than 90 µM for the first, greater than 90 µM for the second.

First: CCCCCc1cc(O)c2c(c1)OC(C)(C)[C@@H]1CCC(C)=C[C@@H]21 [Tetrahydrocannabinol]
Second: C[C@]12CCC(=O)C=C1C=C[C@@H]1[C@@H]2CC[C@@]2(C)[C@H]1CC[C@@]2(O)CCC(=O)O [Canrenoate potassium]
The CC50 at 24 h of the first is lower: 10.9 µM for the first, greater than 20 µM for the second.

Compared with CCN(Cc1cccnc1)C(=O)c1cccc(Cl)c1[C@]1(C)C(=O)N(Cc2ccc(OC)cc2OC)c2ccc(Cl)cc21 [SSR126768], CN(C)C/C=C(/c1ccc(Br)cc1)c1cccnc1 [Zimeldine dihydrochloride hydrate] is 3.7-fold higher in CC50 at 24 h: 9.39 µM for the first, 35.2 µM for the second.

Compared with CCN1/C(=C/C=C/C=C/c2sc3ccccc3[n+]2CC)Sc2ccccc21 [Dithiazanine iodide], CN(C)CC/C=C1/c2ccccc2COc2ccc(CC(=O)O)cc21 [Olopatadine hydrochloride] is higher in CC50 at 24 h: 4.14 µM for the first, greater than 50 µM for the second.

O=C(O)/C=C/c1ccc(Cn2ccnc2)cc1 [Ozagrel hydrochloride] and CCCCNc1ccc(C(=O)OCCN(CC)CC)cc1 [Depolipon] cannot be ordered by CC50 at 24 h: greater than 20 µM for the first, greater than 50 µM for the second.

CC(C)C1OCCN1CCOC(=O)NCCCCCCNC(=O)OCCN1CCOC1C(C)C (stereo not shown) [Bis{2-[2-(propan-2-yl)-1,3-oxazolidin-3-yl]ethyl} hexane-1,6-diylbiscarbamate] and COC(C)(C)CCCC(C)CC=O (stereo not shown) [7-Methoxy-3,7-dimethyloctanal] cannot be ordered by CC50 at 24 h: greater than 90 µM for the first, greater than 90 µM for the second.

CCC1(C)NC(=O)NC1=O (stereo not shown) [5-Ethyl-5-methylhydantoin] and C=CCn1c(=O)n(CC=C)c(=O)n(CC=C)c1=O [Triallyl isocyanurate] cannot be ordered by CC50 at 24 h: greater than 90 µM for the first, greater than 90 µM for the second.

CCCCOCC(C)O (stereo not shown) [1-Butoxy-2-propanol] and OCCOc1ccc(OCCO)cc1 [2,2'-[1,4-Phenylenebis(oxy)]diethanol] cannot be ordered by CC50 at 24 h: greater than 90 µM for the first, greater than 90 µM for the second.

CNC(=O)c1c(I)c(C(=O)NCC(=O)Nc2c(I)c(C(=O)O)c(I)c(C(=O)NCCO)c2I)c(I)c(N(C)C(C)=O)c1I [Ioxaglic acid] and COc1ccc([C@@H]2CC(=O)c3c(O)cc(O[C@@H]4O[C@H](CO[C@@H]5O[C@@H](C)[C@H](O)[C@@H](O)[C@H]5O)[C@@H](O)[C@H](O)[C@H]4O)cc3O2)cc1O [Hesperidin] cannot be ordered by CC50 at 24 h: greater than 50 µM for the first, greater than 20 µM for the second.

Oc1ccc2c3c1O[C@H]1[C@@H](O)CC[C@@]4(O)[C@@H](C2)N(CC2CCC2)CC[C@]314 [Nalbuphine] and O=C=NC1CCC(CC2CCC(N=C=O)CC2)CC1 (stereo not shown) [1,1-Methylenebis(4-isocyanatocyclohexane)] cannot be ordered by CC50 at 24 h: greater than 50 µM for the first, greater than 90 µM for the second.

Compared with CC(=O)Oc1cc(C)c(OC(C)=O)c2ccccc12 [Acetomenaphthone], COC(=O)NC(=S)Nc1ccccc1NC(=S)NC(=O)OC [Thiophanate-methyl] is higher in CC50 at 24 h: 19.7 µM for the first, greater than 90 µM for the second.

O=C(O)CS [Thioglycolic acid] and O=C(O)[C@@H]1CCCN1 [Proline] cannot be ordered by CC50 at 24 h: greater than 90 µM for the first, greater than 50 µM for the second.

CO[Si](C)(OC)OC [Trimethoxymethylsilane] showed a CC50 at 24 h greater than 90 µM.

same assay, conditions: rat, gh3-tre-luc cells, AC50 (uM) modified / 1000, Tox21_110001=Tox21_110303; viability, 1 nM T3 present, 24 h

Cc1cccc(C)c1N=C1NCCCS1 [Xylazine] showed a CC50 at 24 h greater than 50 µM.

same assay, conditions: rat, gh3-tre-luc cells, AC50 (uM) modified / 1000, Tox21_110001=Tox21_112150; viability, 1 nM T3 present, 24 h

Work on CCS(=O)(=O)C(C)(C)S(=O)(=O)CC [Sulfonmethane] yielded a CC50 at 24 h greater than 50 µM.

same assay, conditions: rat, gh3-tre-luc cells, AC50 (uM) modified / 1000, Tox21_110001=Tox21_113080; viability, 1 nM T3 present, 24 h

COP(=S)(OC)Oc1ccc(S(N)(=O)=O)cc1 [Cythioate] gave a CC50 at 24 h greater than 50 µM.

same assay, conditions: rat, gh3-tre-luc cells, AC50 (uM) modified / 1000, Tox21_110001=Tox21_201546; viability, 1 nM T3 present, 24 h

For Cc1ccc(OP(=O)(Oc2ccc(C)cc2)Oc2ccc(C)cc2)cc1 [Tricresyl phosphate], the CC50 at 24 h was greater than 90 µM.

same assay, conditions: rat, gh3-tre-luc cells, AC50 (uM) modified / 1000, Tox21_110001=Tox21_202132; viability, 1 nM T3 present, 24 h

Work on O=NN1CCOCC1 [N-Nitrosomorpholine] yielded a CC50 at 24 h greater than 100 µM.

same assay, conditions: rat, gh3-tre-luc cells, AC50 (uM) modified / 1000, Tox21_110001=Tox21_202858; viability, 1 nM T3 present, 24 h

COc1ccc(C=O)cc1O [3-Hydroxy-4-methoxy-benzaldehyde] showed a CC50 at 24 h greater than 90 µM.

same assay, conditions: rat, gh3-tre-luc cells, AC50 (uM) modified / 1000, Tox21_110001=Tox21_301807; viability, 1 nM T3 present, 24 h

Work on CC1CN1P(=O)(N1CC1C)N1CC1C (stereo not shown) [Metepa] yielded a CC50 at 24 h greater than 90 µM.

same assay, conditions: rat, gh3-tre-luc cells, AC50 (uM) modified / 1000, Tox21_110001=Tox21_301917; viability, 1 nM T3 present, 24 h

In the case of CCOP(=O)(O)C(N)=O [Fosamine ammonium], the CC50 at 24 h is reported as greater than 90 µM.

same assay, conditions: rat, gh3-tre-luc cells, AC50 (uM) modified / 1000, Tox21_110001=Tox21_302867; viability, 1 nM T3 present, 24 h

With O=NN1CCOCC1 [N-Nitrosomorpholine] the CC50 at 24 h was greater than 90 µM.
